Data reported in PMC4394048 (Molecular cancer therapeutics, 2015).

B1: Oatp1b2 (Rattus norvegicus) (protein)
chain: MDHTQQSRKAAEAQPSRSKQTRFCDGFKLFLAALSFSYICKALGGVVMKSSITQIERRFDIPSSISGLIDGGFEIGNLLVIVFVSYFGSKLHRPKLIGIGCFIMGIGSILTALPHFFMGYYKYAKENDIGSLGNSTLTCFINQMTSPTGPSPEIVEKGCEKGLKSHMWIYVLMGNMLRGIGETPIVPLGISYLDDFAKEGHTSMHLGTLHTIAMIGPILGFIMSSVFAKIYVDVGYVDLNSVRITPNDARWVGAWWLSFIVNGLLCITSSIPFFFLPKIPKRSQEERKNSVSLHAPKTDEEKKHMTNLTKQEEQDPSNMTGFLRSLRSILTNEIYVIFLILTLLQVSGFIGSFTYLFKFIEQQFGRTASQANFLLGIITIPTMATAMFLGGYIVKKFKLTSVGIAKFVFFTSSVAYAFQFLYFPLLCENKPFAGLTLTYDGMNPVDSHIDVPLSYCNSDCSCDKNQWEPICGENGVTYISPCLAGCKSFRGDKKPNNTEFYDCSCISNSGNNSAHLGECPRYKCKTNYYFYIILQVTVSFFTAMGSPSLILILMKSVQPELKSLAMGFHSLIIRALGGILAPIYYGAFIDRTCIKWSVTSCGKRGACRLYNSRLFGFSYLGLNLALKTPPLFLYVVLIYFTKRKYKRNDNKTLENGRQFTDEGNPDSVNKNGYYCVPYDEQSNETPL

Columns and labels:
[1] = target: T1, OATP1B3 (Homo sapiens, UniProt Q9NPD5)
[2] = target: MDR1 (Homo sapiens, UniProt P08183); conditions: MDCKII-MDR1 versus MDCKII-Co cells over time; 0.1 μM; p < 0.05
[3] = tested on: OATP1B1/MDR1; conditions: MDCKII-OATP1B1/MDR1 versus MDCKII-OATP1B1 cells, p < 0.001
[4] = tested on: OATP1B3/MDR1; conditions: MDCKII-OATP1B3/MDR1 versus MDCKII-OATP1B3 cells, p < 0.01
[5] = cited from earlier work
[6] = Mdr1a/1b−/− mice, intravenous administration; cited from earlier work
[7] = target: T1, OATP1B3; experiment: in vitro
[8] = Docetaxel distribution in Slco1b2−/− and wild-type mice; conditions: for mean plasma clearance ± S.D.: dose/AUC
[9] = substrate: CC(=O)O[C@@]12CO[C@@H]1C[C@H](O)[C@@]1(C)C(=O)[C@H](O)C3=C(C)[C@@H](OC(=O)[C@H](O)[C@@H](NC(=O)OC(C)(C)C)c4ccccc4)C[C@@](O)([C@@H](OC(=O)c4ccccc4)[C@H]21)C3(C)C; experiment: cells, lysate or membranes named; conditions: other: HeLa cells; 0.1-100 μM; Michaelis-Menten fit; 37.0 °C

T1 sequence (Q9NPD5 whole entry): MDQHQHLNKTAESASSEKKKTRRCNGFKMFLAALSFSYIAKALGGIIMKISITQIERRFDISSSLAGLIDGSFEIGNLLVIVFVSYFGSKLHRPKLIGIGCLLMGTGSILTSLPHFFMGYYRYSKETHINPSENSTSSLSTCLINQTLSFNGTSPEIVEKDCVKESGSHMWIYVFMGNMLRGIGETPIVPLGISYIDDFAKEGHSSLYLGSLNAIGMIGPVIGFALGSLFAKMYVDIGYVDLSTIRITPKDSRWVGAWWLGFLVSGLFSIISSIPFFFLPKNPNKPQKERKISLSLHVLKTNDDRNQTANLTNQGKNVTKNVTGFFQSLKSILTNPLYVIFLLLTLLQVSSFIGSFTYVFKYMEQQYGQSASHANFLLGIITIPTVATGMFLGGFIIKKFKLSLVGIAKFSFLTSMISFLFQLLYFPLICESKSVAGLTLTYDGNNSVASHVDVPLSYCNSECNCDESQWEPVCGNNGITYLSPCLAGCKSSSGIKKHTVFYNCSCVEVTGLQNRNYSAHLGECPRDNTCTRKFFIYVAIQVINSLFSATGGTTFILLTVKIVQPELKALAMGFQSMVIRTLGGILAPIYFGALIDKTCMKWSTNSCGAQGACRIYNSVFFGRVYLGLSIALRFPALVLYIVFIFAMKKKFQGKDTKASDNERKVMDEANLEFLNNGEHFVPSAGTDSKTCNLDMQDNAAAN
Sequence of MDR1 (P08183 whole entry): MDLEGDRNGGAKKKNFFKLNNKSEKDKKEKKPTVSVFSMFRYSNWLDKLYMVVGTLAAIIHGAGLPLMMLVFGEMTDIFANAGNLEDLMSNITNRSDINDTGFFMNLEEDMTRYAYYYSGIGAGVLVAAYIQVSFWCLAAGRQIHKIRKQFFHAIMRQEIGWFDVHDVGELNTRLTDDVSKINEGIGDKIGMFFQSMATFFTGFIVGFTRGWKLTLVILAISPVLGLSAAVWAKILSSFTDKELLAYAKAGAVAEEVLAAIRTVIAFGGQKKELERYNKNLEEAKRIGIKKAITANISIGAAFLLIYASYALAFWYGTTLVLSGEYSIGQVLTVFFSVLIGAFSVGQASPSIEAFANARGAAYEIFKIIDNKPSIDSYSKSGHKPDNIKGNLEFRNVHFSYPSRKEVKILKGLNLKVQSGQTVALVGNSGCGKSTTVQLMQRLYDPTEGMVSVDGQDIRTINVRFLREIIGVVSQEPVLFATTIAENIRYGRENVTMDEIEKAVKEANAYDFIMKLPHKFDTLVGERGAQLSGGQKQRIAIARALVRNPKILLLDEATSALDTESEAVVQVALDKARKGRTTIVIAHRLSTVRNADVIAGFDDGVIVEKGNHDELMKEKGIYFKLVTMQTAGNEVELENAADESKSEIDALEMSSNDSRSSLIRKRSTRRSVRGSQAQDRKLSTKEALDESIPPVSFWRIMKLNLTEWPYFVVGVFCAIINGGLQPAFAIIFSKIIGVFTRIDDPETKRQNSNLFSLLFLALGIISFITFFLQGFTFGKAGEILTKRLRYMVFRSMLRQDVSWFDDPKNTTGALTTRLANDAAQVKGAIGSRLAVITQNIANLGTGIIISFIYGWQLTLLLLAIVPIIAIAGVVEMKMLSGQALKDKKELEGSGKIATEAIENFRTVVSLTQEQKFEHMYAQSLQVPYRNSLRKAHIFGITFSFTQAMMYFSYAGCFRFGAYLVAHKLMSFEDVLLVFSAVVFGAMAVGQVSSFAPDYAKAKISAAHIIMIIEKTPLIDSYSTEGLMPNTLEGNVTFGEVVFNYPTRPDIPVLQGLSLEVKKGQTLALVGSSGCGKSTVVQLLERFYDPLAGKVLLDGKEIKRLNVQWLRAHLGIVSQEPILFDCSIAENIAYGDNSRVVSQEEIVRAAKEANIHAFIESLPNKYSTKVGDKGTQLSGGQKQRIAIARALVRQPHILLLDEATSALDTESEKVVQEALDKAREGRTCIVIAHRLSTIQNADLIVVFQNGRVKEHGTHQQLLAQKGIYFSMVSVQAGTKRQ

| Molecule | Vmax [1] [pmol/mg/min] | apical docetaxel accumulation (basal-to-apical) [2] | docetaxel transported into the apical compartment ([3]; 0.5h up to 3h, 0.1 μM) | intracellular docetaxel ([3]; all time points) | docetaxel transported into the apical compartment ([4]; 0.5h up to 3h, 0.1 μM) | intracellular docetaxel ([4]; all time points) | increase in docetaxel clearance ([5]; CYP3A4*1B and CYP3A5*1A alleles (CYP3A4/5*2 haplotype)) [%] | docetaxel excreted in bile ([5]; humans) | docetaxel excreted in urine ([5]; humans) | difference in drug clearance amongst patients ([5]; patients receiving the same treatment regimens) | increase in odds of developing grade 4 neutropenia ([5]; with a 50% decrease in docetaxel clearance) | AUC of docetaxel in knockout versus wild-type mice [6] | Km [7] [µM] | plasma clearance in Slco1b2−/− mice, lower than wild-type mice ([8]; 1 mg/kg intravenous, p < 0.05) [%] | mean plasma clearance ± S.D. ([8]; Slco1b2−/− mice, 1 mg/kg intravenous) [mL/min/kg] | docetaxel liver concentrations ([8]; Slco1b2−/− versus wild-type mice, 30 min after 1 mg/kg intravenous) | mean plasma clearance ± S.D. ([8]; wild-type mice, 1 mg/kg intravenous) [mL/h] | Km [9] [µM] | Vmax [9] [pmol/mg/min] |
| --- | --- | --- | --- | --- | --- | --- | --- | --- | --- | --- | --- | --- | --- | --- | --- | --- | --- | --- | --- |
| CC(=O)O[C@@]12CO[C@@H]1C[C@H](O)[C@@]1(C)C(=O)[C@H](O)C3=C(C)[C@@H](OC(=O)[C@H](O)[C@@H](NC(=O)OC(C)(C)C)c4ccccc4)C[C@@](O)([C@@H](OC(=O)c4ccccc4)[C@H]21)C3(C)C [docetaxel] | 480 ± 90 | significantly higher | significantly higher | significantly lower | significantly higher | significantly lower | 64 | ~ 75% | ~ 5% | up to 10 fold | more than 4 fold | similar | 14 ± 6.5 | 83 | 1.22 ± 0.583 | no significant difference | 473 ± 124 |  |  |
| B1 |  |  |  |  |  |  |  |  |  |  |  |  |  |  |  |  |  | 20.8 ± 7.4 | 1548 ± 186 |
